Data reported in PMC3665789 (PLoS ONE, 2013).
Read-outs that look alike come from different tables or passages of the source.

Tests used:
[1] = test system: HIV-1 CI#17 (clinical isolate; X4); settings: PBMCs; CI#17, group M subtype B; p24 Ag ELISA
[2] = test system: HIV-1 ETH2220 (clinical isolate; R5); settings: PBMCs; ETH2220, group M subtype C; p24 Ag ELISA
[3] = test system: HIV-induced cell-cell syncytia formation (HUT-78/IIIB and SupT1 cells); assay: Giant cell cocultivation assay (HUT-78/IIIB + SupT1); assay type: cell-based, HIV-1
Experimental: The cocultivation experiments were performed as described previously. In brief, LabyA1 was diluted in cell culture medium and 100 µl was added in 96-well plate (BD, Falcon) along with the SupT1 T cells (1×10^5 cells/50 µl). The same amount of persistently HIV-infected HUT-78/IIIB cells were seeded and incubated at 37°C for 24 h. The next day, giant cell formation was scored microscopically and in addition the depletion of the CD4^+ SupT1 cells was measured by flow cytometry.
The depletion of the target CD4^+ SupT1 T cells in the cocultivation assays was measured using PE-conjugated […] (BD Biosciences). The cells were incubated for 30 minutes at room temperature with anti-CD28-PE. After several washing steps, the cells were fixed with a 1% paraformaldehyde solution and analyzed by flow cytometry.

HIV-1 NL4.3 = assay: Pre-incubation of MT-4 cells with compound, wash, then HIV-1 NL4.3 infection; assay type: cell-based; settings: MT-4 cells pre-incubated 2 h at 37°C, washed, infected with HIV-1 NL4.3; 5 days; control 100% CPE
R5 HIV-1 gp120 ADA = assay: Surface plasmon resonance; assay type: binding; settings: SPR, immobilized gp120 ADA, 25°C
Experimental: Recombinant gp120 proteins from X4 HIV-1 IIIB strain (ImmunoDiagnostics Inc., Woburn, MA) and from R5 HIV-1 strains ADA and YU2 (ImmunoDiagnostics Inc.) were covalently immobilized on a CM5 sensor chip in 10 mM sodium acetate, pH 4.0, using standard amine coupling chemistry. The chip densities were 8200 resonance units (RUs), 10760 RUs and 9626 RUs, respectively. A reference flow cell was used as a control for non-specific binding and refractive index changes. All interaction studies were performed at 25°C on a Biacore T200 instrument (GE Healthcare, Uppsala, Sweden). The compounds LabyA1 and nisin were serially diluted in HBS-P (10 mM HEPES, 150 mM NaCl and 0,05% surfactant P20; pH 7.4) supplemented with 5% dimethyl sulfoxide (DMSO, Merck), and 10 mM CaCl2 covering a concentration range between 7.8 and 31.3 µM, by using two-fold dilution steps. Samples (in duplicate) were injected for 2 minutes at a flow rate of 45 µl/min and the dissociation was followed for 4 minutes. Several buffer blanks were used for double referencing. The CM5 sensor chip surface was regenerated with a single injection of 50 mM NaOH. A DMSO concentration series was included to eliminate the contribution of DMSO to the measured response. […] The experimental data were fit using the 1∶1 binding model Biacore T200 Evaluation software 1.0 to determine the binding kinetics.

PBMCs = assay: Bio-Plex cytokine/chemokine detection assay; assay type: cell-based; settings: 24 h; 9.6 µM LabyA1 versus 0.078 µM PHA; 27-plex
Experimental: Freshly isolated PBMCs from 4 individual donors were incubated for 24 h with 9.6 µM LabyA1 or 0.078 µM PHA. The cytokine/chemokine concentration in the cell culture supernatant was determined by the Bio-Plex 200 System (Bio-Rad, Hercules, CA) using the Bio-Plex Human Cytokine 27-Plex assay as described earlier.

[4] = Cytotoxicity assay (MTS/PES); assay type: cell-based
Experimental: Cytotoxicity in PBMCs (3 days), MT-4 (5 days), HUT-78 (1 day), C8166-(5 days), HEL (3 days) and Daudi cells (3 days) was measured using the MTS/PES method. The duration of the assays is given between brackets.

[5] = test system: HIV-1 NL4.3^AMD3100res. (X4); settings: read-out: EC50 (µM ± SEM); MT-4 cells; NL4.3 resistant to AMD3100; MTS/PES
HIV-1 NL4.3^RALres. (X4) = settings: read-out: EC50 (µM ± SEM); MT-4 cells; NL4.3 resistant to raltegravir (RAL); MTS/PES
[6] = test system: HSV-1 TK^- RV-294 (clinical isolate); settings: HEL cells, CPE
[7] = test system: HSV-1 TK^- RV-179 (clinical isolate); settings: HEL cells, CPE
[8] = test system: drug-resistant HIV strains; settings: read-out: Median EC50; median over 6 drug-resistant HIV-1 strains in MT-4
HSV-1 wild-type = settings: read-out: Median EC50; median over HSV-1 wild-type strains; HEL cells
HSV-2 wild-type = settings: read-out: Median EC50; median over HSV-2 wild-type strains; HEL cells
HSV = settings: read-out: anti-HSV activity EC50 range; range over HSV-1 and HSV-2 strains; CPE in HEL cells

Work on `C/C=C1\NC(=O)[C@H](Cc2ccccc2)NC(=O)[C@@H]2CCCN2C(=O)[C@H](C(C)C)NC(=O)[C@H](Cc2c[nH]c3ccccc23)NC(=O)[C@]23CSC[C@H](NC1=O)C(=O)N[C@H](C(=O)O)CSSC[C@H](NC(=O)[C@@H]1CSC[C@]4(C[C@H](N)C(=O)N[C@@H](CC(N)=O)C(=O)N[C@@H](C)C(=O)N4)C(=O)N[C@@H](C(C)C)C(=O)N[C@@H](Cc4c[nH]c5ccccc45)C(=O)N[C@@H](CCC(=O)O)C(=O)N1)C(=O)N[C@@H](C2)C(=O)N[C@@H]([C@@H](C)O)C(=O)NCC(=O)N3` [LabyA1, labyrinthopeptin A1] yielded an EC50 [1] of 1000 ± 200 nM, an EC50 [2] of 780 ± 60 nM and an EC50 (HIV-1 clinical isolates; read-out: EC50 range, range over 9 HIV-1 clinical isolates in PBMCs) of 700 to 1900 nM. The EC50 (HIV-1 clinical isolates; read-out: Median EC50, median over 9 HIV-1 clinical isolates in PBMCs) was 1000 nM, the “activity in cell-cell fusion assay” value ([3]; 0.96 µM, light microscopy) was “no activity was observed” and the giant cell formation ([3]; 4.8 µM, light microscopy) was “some giant cells were formed”. The giant cell formation ([3]; 24 µM, light microscopy) was “completely inhibited”, the EC50 ([3]; 24 h coculture, CD28 flow cytometry, read-out: EC50, survival of SupT1 T cells in coculture with HUT-78/IIIB cells) was 2500 nM and the “% CPE after pre-incubation of cells and removal of compound” value (HIV-1 NL4.3) was 96.8±3.2 % CPE. For the same compound, the Kd (R5 HIV-1 gp120 ADA) was 12300 ± 2200 nM, the “cytokine/chemokine response of treated PBMCs” value (PBMCs) was “much weaker, if any” and the CC50 ([4]; C8166 cells, 5 days) was 23000 nM. The CC50 ([4]; Daudi cells, 3 days) was over 48000 nM, the CC50 ([4]; HUT-78 cells, 1 day) was over 31000 nM and the CC50 ([4]; MT-4 cells, 5 days) was 33000 nM. For the same compound, the CC50 ([4]; PBMCs, 3 days) was 45000 nM, the EC50 [5] was 2.4 ± 0.5 µM and the EC50 (HIV-1 NL4.3^RALres. (X4)) was 0.88 ± 0.08 µM. For the same compound, the EC50 [6] was 310 nM, the EC50 [7] was 1900 ± 300 nM and the EC50 [8] was 2100 nM. It also gave an EC50 (HSV-1 wild-type) of 1600 nM, an EC50 (HSV-2 wild-type) of 410 nM and an EC50 (HSV) of 290 to 2800 nM.
